From patent US20240109917A1 (ACTELION PHARMACEUTICALS LTD, priority 2020, published 2024)
Like-named read-outs stand apart in the source and are kept apart here.

Tests used:
[1] = biological target: PDGFRβ (Rattus norvegicus (Rat), UniProt Q05030); test: PDGFRβ Cellular Assay (PDGFRb P-Y751 HTRF in A10 cells stimulated with PDGF-BB); assay type: cell-based
In short: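 Phospho-Y751 PDGFRβ was measured by HTRF in lysates of A10 rat cells. Cells received compound for 3 hours before PDGF-BB stimulation (100 ng/mL working stock).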

[2] = biological target: Tb-labeled inactive PDGFRβ (Homo sapiens (Human), UniProt P09619); test: PDGFRβ LanthaScreen Assay; assay type: binding; conditions: read-out: PDGFR Lantha IC50
Chain of Tb-labeled inactive PDGFRβ (P09619 33-1106): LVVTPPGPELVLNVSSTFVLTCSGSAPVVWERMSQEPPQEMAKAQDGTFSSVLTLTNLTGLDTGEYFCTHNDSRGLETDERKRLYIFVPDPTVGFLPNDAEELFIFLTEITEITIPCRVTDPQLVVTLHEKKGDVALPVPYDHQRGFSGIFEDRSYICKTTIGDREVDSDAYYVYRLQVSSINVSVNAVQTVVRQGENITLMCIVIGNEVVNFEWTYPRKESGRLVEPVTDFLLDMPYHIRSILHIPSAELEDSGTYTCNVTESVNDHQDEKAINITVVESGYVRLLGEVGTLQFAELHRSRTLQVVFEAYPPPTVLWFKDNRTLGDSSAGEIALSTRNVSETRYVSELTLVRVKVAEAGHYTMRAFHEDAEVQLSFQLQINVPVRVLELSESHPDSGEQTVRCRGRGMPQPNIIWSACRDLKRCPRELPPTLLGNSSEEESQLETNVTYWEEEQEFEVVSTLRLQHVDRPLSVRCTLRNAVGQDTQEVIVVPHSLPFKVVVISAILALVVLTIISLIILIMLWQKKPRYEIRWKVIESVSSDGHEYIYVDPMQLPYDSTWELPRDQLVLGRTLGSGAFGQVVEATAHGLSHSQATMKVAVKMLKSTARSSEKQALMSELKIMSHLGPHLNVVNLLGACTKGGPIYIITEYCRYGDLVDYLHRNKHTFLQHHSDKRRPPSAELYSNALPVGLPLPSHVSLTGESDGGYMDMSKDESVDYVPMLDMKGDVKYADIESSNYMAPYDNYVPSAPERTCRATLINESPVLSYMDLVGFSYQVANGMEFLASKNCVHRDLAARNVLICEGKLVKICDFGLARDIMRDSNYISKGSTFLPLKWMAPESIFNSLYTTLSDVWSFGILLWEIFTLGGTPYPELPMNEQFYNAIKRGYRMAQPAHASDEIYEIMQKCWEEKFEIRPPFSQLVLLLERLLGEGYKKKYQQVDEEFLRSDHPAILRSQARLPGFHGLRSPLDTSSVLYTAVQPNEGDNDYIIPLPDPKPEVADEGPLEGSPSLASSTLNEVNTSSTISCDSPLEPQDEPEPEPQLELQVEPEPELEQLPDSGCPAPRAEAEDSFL

Chain of PDGFRβ (Q05030 32-1097): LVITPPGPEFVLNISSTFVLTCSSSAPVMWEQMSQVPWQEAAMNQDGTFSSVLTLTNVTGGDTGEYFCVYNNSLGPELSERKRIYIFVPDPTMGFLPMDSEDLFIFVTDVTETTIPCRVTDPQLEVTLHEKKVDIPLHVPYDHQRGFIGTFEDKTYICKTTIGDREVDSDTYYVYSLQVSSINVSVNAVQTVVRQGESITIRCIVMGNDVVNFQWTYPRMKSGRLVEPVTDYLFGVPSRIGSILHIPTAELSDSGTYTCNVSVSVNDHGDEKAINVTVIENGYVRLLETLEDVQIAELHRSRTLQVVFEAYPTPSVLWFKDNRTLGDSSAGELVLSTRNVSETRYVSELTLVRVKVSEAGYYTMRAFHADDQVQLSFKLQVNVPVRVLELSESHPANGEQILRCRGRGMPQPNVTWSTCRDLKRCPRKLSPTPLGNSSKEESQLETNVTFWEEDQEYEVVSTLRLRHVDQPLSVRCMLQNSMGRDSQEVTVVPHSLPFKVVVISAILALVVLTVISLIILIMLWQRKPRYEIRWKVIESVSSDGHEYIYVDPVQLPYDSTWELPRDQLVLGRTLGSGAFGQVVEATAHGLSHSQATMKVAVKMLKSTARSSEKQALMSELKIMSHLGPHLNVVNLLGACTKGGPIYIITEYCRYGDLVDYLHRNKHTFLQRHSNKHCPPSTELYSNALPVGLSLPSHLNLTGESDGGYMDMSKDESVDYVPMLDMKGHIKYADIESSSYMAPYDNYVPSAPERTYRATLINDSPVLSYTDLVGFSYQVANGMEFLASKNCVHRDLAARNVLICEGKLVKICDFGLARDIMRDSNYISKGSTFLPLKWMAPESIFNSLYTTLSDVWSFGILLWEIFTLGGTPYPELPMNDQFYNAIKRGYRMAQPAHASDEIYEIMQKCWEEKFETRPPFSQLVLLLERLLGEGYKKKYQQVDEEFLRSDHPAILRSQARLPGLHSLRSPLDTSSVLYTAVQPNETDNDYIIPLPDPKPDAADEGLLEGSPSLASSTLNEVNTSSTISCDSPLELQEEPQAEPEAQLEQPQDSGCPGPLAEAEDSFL

Structure (SMILES) | IC50 ([1]; read-out: PDGFR Cellular IC50) | IC50 [2] | IC50 ([1]; PDGFR Cellular IC50)
Cc1ncc(NC(=O)[C@H]2CCCN2C(C)C)cc1NC(=O)c1cnn2cc(-c3cnn4c3OCCC4)sc12 [Example 347, (R)-2-(6,7-dihydro-5H-pyrazolo[5,1-b][1,3]oxazin-3-yl)-N-(5-(1-isopropylpyrrolidine-2-carboxamido)-2-methylpyridin-3-yl)pyrazolo[5,1-b]thiazole-7-carboxamide] | 6 nM | 6 nM | –
Cc1ncc(NC(=O)CN2C[C@@H](CO)OC(C)(C)C2)cc1NC(=O)c1cnn2cc(-c3cnn(C)c3)sc12 [Example 377, (S)—N-(5-(2-(6-(hydroxymethyl)-2,2-dimethylmorpholino)acetamido)-2-methylpyridin-3-yl)-2-(1-methyl-1H-pyrazol-4-yl)pyrazolo[5,1-b]thiazole-7-carboxamide] | 119 nM | 6.2 nM | –
Cc1ncc(NC(=O)C[C@H]2CCCN2C(C)C)cc1NC(=O)c1cnn2cc(-c3cnn4c3OCCC4)sc12 [Example 351, (R)-2-(6,7-dihydro-5H-pyrazolo[5,1-b][1,3]oxazin-3-yl)-N-(5-(2-(1-isopropylpyrrolidin-2-yl)acetamido)-2-methylpyridin-3-yl)pyrazolo[5,1-b]thiazole-7-carboxamide] | – | 3.1 nM | 17.7 nM
COCCn1cc(-c2cn3ncc(C(=O)Nc4cc(NC(=O)CN5CCCC5)cnc4C)c3s2)cn1 [Example 337, 2-(1-(2-methoxyethyl)-1H-pyrazol-4-yl)-N-(2-methyl-5-(2-(pyrrolidin-1-yl)acetamido)pyridin-3-yl)pyrazolo[5,1-b]thiazole-7-carboxamide] | 24.9 nM | 46.2 nM | –
Cc1ncc(NC(=O)CN2CC(C)C2)cc1NC(=O)c1cnn2cc(-c3cnn4c3OCCC4)sc12 [Example 407, 2-(6,7-dihydro-5H-pyrazolo[5,1-b][1,3]oxazin-3-yl)-N-(2-methyl-5-(2-(3-methylazetidin-1-yl)acetamido)pyridin-3-yl)pyrazolo[5,1-b]thiazole-7-carboxamide] | 11.9 nM | 6.2 nM | –
Cc1ncc(NC(=O)[C@@H]2CCCN2C)cc1NC(=O)c1cnn2cc(-c3cnn4c3OCCC4)sc12 [Example 349, (S)-2-(6,7-dihydro-5H-pyrazolo[5,1-b][1,3]oxazin-3-yl)-N-(2-methyl-5-(1-methylpyrrolidine-2-carboxamido)pyridin-3-yl)pyrazolo[5,1-b]thiazole-7-carboxamide] | 9.1 nM | 8.7 nM | –
COc1ncccc1-c1cn2ncc(C(=O)Nc3cc(C(=O)NCCN4CC(C)(C)C4)cnc3C)c2s1 [Example 387, N-(5-((2-(3,3-dimethylazetidin-1-yl)ethyl)carbamoyl)-2-methylpyridin-3-yl)-2-(2-methoxypyridin-3-yl)pyrazolo[5,1-b]thiazole-7-carboxamide] | 6.9 nM | 1.5 nM | –
COc1cccc(-c2cn3ncc(C(=O)Nc4cc(NC(=O)CN5CC(C)(C)C5)cnc4C)c3s2)n1 [Example 394, N-(5-(2-(3,3-dimethylazetidin-1-yl)acetamido)-2-methylpyridin-3-yl)-2-(6-methoxypyridin-2-yl)pyrazolo[5,1-b]thiazole-7-carboxamide] | 1.8 nM | 1.2 nM | –
Cc1ncc(C(=O)NCCN2CCCC2(C)C)cc1NC(=O)c1cnn2cc(-c3cnn(Cc4cc(OCc5ccccc5)no4)c3)sc12 [Example 362, 2-(1-((3-(benzyloxy)isoxazol-5-yl)methyl)-1H-pyrazol-4-yl)-N-(5-((2-(2,2-dimethylpyrrolidin-1-yl)ethyl)carbamoyl)-2-methylpyridin-3-yl)pyrazolo[5,1-b]thiazole-7-carboxamide] | 62.3 nM | 4.5 nM | –
Cc1ncc(NC(=O)C2CN(C(C)C)C2)cc1NC(=O)c1cnn2cc(-c3cnn(C)c3C)sc12 [Example 357, 2-(1,5-dimethyl-1H-pyrazol-4-yl)-N-(5-(1-isopropylazetidine-3-carboxamido)-2-methylpyridin-3-yl)pyrazolo[5,1-b]thiazole-7-carboxamide] | 56.9 nM | 4.5 nM | –
COCCn1cc(-c2cn3ncc(C(=O)Nc4cc(NC(=O)[C@H]5CCCN5C(C)C)cnc4C)c3s2)cn1 [Example 344, (R)—N-(5-(1-isopropylpyrrolidine-2-carboxamido)-2-methylpyridin-3-yl)-2-(1-(2-methoxyethyl)-1H-pyrazol-4-yl)pyrazolo[5,1-b]thiazole-7-carboxamide] | 59.2 nM | 67.5 nM | –
Cc1ncc(NC(=O)CN2C[C@H](CO)OC(C)(C)C2)cc1NC(=O)c1cnn2cc(-c3cnn(C)c3)sc12 [Example 376, (R)—N-(5-(2-(6-(hydroxymethyl)-2,2-dimethylmorpholino)acetamido)-2-methylpyridin-3-yl)-2-(1-methyl-1H-pyrazol-4-yl)pyrazolo[5,1-b]thiazole-7-carboxamide] | 154 nM | 5.6 nM | –
COCCn1cc(-c2cn3ncc(C(=O)Nc4cc(NC(=O)CN5CC6CCC5CC6)cnc4C)c3s2)cn1 [Example 331, N-(5-(2-(2-azabicyclo[2.2.2]octan-2-yl)acetamido)-2-methylpyridin-3-yl)-2-(1-(2-methoxyethyl)-1H-pyrazol-4-yl)pyrazolo[5,1-b]thiazole-7-carboxamide] | 2.7 nM | 3.3 nM | –
COCCn1cc(-c2cn3ncc(C(=O)Nc4cc(NC(=O)CN5CCC(C)(C)C5)cnc4C)c3s2)cn1 [Example 336, N-(5-(2-(3,3-dimethylpyrrolidin-1-yl)acetamido)-2-methylpyridin-3-yl)-2-(1-(2-methoxyethyl)-1H-pyrazol-4-yl)pyrazolo[5,1-b]thiazole-7-carboxamide] | 3.1 nM | 3.3 nM | –
COCCn1cc(-c2cn3ncc(C(=O)Nc4cc(NC(=O)CN5C6CCC5CC6)cnc4C)c3s2)cn1 [Example 340, N-(5-(2-(7-azabicyclo[2.2.1]heptan-7-yl)acetamido)-2-methylpyridin-3-yl)-2-(1-(2-methoxyethyl)-1H-pyrazol-4-yl)pyrazolo[5,1-b]thiazole-7-carboxamide] | 6.5 nM | 7.5 nM | –
Cc1ncc(NC(=O)CN2C[C@H](C)O[C@@H](C)C2)cc1NC(=O)c1cnn2cc(-c3c(C)n[nH]c3C)sc12 (relative stereo) [Example 373, 2-(3,5-dimethyl-1H-pyrazol-4-yl)-N-(5-(2-(trans-2,6-dimethylmorpholino)acetamido)-2-methylpyridin-3-yl)pyrazolo[5,1-b]thiazole-7-carboxamide] | 56.7 nM | 7 nM | –
COCCn1cc(-c2cn3ncc(C(=O)Nc4cc(NC(=O)CN5CCC56CCC6)cnc4C)c3s2)cn1 [Example 333, N-(5-(2-(1-azaspiro[3.3]heptan-1-yl)acetamido)-2-methylpyridin-3-yl)-2-(1-(2-methoxyethyl)-1H-pyrazol-4-yl)pyrazolo[5,1-b]thiazole-7-carboxamide] | 3.3 nM | 3.1 nM | –
Cc1ncc(NC(=O)C2CCN(C(C)C)C2)cc1NC(=O)c1cnn2cc(-c3cnn(C)c3C)sc12 (stereo not drawn) [Example 356, 2-(1,5-dimethyl-1H-pyrazol-4-yl)-N-(5-(1-isopropylpyrrolidine-3-carboxamido)-2-methylpyridin-3-yl)pyrazolo[5,1-b]thiazole-7-carboxamide] | – | 17.9 nM | 74.6 nM
